Reference: patent publication US20150216794A1, “METHODS OF TREATING PAIN ASSOCIATED WITH OSTEOARTHRITIS OF A JOINT WITH A TOPICAL FORMULATION OF A SPIRO-OXINDOLE COMPOUND” (IVAX International GmbH, priority 2014, published 2015)
Where “and” joins values, the source holds several entries; their conditions need not be identical. Equal values may be shown once.

Experiments:
[1] = target: NaV1.7 (Homo sapiens, UniProt Q15858); assay: block of NaV1.7 (inactivated vs resting state); assay type: biochemical
NaV1.7, sequence (Q15858 whole entry): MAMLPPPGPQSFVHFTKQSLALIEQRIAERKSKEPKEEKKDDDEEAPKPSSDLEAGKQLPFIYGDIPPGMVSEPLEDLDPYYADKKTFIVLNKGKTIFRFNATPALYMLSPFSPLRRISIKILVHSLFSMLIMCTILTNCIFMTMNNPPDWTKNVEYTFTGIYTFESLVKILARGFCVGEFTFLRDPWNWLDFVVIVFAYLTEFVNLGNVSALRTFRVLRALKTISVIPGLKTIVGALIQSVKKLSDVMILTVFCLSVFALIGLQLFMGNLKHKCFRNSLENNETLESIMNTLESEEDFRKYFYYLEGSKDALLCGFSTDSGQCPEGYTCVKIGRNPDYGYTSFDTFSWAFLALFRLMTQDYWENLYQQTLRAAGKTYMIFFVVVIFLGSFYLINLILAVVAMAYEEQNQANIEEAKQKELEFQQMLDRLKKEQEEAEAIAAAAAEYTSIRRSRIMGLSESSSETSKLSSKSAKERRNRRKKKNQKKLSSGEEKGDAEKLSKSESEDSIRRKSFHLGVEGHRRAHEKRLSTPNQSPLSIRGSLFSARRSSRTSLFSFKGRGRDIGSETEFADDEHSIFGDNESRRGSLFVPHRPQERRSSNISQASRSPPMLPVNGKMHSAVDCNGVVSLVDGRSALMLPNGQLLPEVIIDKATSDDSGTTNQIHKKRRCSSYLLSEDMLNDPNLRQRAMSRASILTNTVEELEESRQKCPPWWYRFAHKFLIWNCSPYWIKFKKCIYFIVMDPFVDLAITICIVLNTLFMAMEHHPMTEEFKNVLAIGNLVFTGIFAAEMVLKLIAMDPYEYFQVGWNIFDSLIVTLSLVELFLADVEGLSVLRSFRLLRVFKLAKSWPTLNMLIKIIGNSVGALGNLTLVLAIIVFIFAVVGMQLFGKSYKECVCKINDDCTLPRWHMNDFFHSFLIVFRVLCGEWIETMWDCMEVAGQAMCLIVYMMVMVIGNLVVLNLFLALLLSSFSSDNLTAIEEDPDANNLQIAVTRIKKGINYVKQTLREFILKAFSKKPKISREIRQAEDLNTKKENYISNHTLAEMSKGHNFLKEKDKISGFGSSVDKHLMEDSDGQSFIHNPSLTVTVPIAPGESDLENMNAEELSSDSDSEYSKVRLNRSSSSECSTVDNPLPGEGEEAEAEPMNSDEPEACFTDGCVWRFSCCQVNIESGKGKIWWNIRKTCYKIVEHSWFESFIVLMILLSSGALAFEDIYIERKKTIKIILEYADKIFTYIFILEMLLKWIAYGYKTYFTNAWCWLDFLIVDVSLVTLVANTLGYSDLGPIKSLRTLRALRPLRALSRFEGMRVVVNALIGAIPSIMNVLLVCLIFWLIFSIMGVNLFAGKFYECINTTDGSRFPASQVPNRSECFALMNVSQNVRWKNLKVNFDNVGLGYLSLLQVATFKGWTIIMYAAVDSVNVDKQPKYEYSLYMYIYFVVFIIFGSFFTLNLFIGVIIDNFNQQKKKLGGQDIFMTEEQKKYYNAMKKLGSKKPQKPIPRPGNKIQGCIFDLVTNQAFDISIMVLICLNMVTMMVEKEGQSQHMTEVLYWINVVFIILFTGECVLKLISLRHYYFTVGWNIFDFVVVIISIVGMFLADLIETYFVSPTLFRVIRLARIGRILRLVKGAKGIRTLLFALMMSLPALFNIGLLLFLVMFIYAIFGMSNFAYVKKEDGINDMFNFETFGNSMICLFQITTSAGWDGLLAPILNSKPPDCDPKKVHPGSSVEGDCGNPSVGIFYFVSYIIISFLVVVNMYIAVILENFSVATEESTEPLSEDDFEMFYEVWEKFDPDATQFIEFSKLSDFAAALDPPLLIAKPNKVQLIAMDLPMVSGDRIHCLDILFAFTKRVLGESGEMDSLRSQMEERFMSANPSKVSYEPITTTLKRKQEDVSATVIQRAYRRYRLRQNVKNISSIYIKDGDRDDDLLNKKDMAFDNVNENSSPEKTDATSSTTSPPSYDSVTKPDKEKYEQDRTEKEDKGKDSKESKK
From the text: NaV1.7 is expressed primarily in the peripheral nervous system in both sensory and sympathetic neurons (Raymond, C. K., et al., op. cit.). Loss-of-function mutations in SCN9A (the gene encoding the alpha subunit of the NaV1.7 sodium channel) cause a human condition known as congenital indifference to pain characterized by an inability to perceive pain (Cox, J. J., et al., Nature (2006), 444:894-98; Goldberg, Y. P., et al., Clin Genet (2007), 71:311-9). Gain-of-function mutations in SCN9A are associated with inherited erythromelalgia (IEM) (Drenth, J. P., et al., J Invest Dermatology (2005), 124:1333-8), which is characterized by spontaneous or easily evoked severe pain. Furthermore, up to 29% of biopsy-proven cases of idiopathic small-fiber neuropathy manifesting mainly as distal severe pain (Faber, C. G., et al., Ann Neurol (2012), 71:26-39) are associated with gain-of-function NaV1.7 channel mutations.

[2] = minipig repeated dermal dosing: spiro-oxindole compound in plasma (LC-MS/MS); assay type: in vivo, Göttingen minipig; details: minipigs
Experimental: The study was carried out on minipigs to obtain information on plasma pharmacokinetics, tissue distribution and accumulation, excretion and metabolic profile of the spiro-oxindole compound after daily dermal administration of a pharmaceutical composition of the invention for 20 consecutive days followed by a single dose of [^14C]-spiro-oxindole compound Day 21.
Midazolam was administered on Days 0 and 20 to 3 male minipigs by bolus intravenous injection at a dose level 0.5 mg/kg.
The [^14C]-spiro-oxindole composition was prepared as follows:
Dosages of test formulations were applied with foil and spread using nitrile gloves to form a thin uniform layer to the treatment site.

[3] = minipig: metabolite profile of urine and bile (UPLC); assay type: in vivo, Göttingen minipig; details: none consistent with spiro-oxindole compound
From the text: Attempts to separate radioactive components using HPLC with radioactivity detection present in plasma, liver and excreta were unsuccessful due to low radioactivity levels in samples submitted for further analysis.

[4] = domestic pig joint penetration: concentration in synovial membrane; assay type: in vivo
Experimental: (§1) This study was conducted to evaluate the joint penetration, systemic plasma exposure and tissue distribution of the spiro-oxindole compound in domestic pigs following topical administration of a pharmaceutical composition utilized in the methods of the invention. Fifteen female pigs were used in this study with three pigs in each group. Beginning on Day 1, a pharmaceutical composition of the invention was topically applied to the left radiocarpal joint (carpus) and tibiotarsal joint (hock) twice daily (bid) for 17 days (34 applications) for Groups 1-4 and once daily (qd) for 17 days (17 applications) for Group 5. Pre-dose blood samples (prior to morning dosing) was collected on Days 2, 7, 10, 14 and 17. A full pharmacokinetic sampling was performed on Day 17 (post am dosing) at the following time points: 1, 2, 4, 8 and 12 hr. On the day of necropsy, Day 18, blood was collected prior to euthanasia, each pig was humanely euthanized and dorsal skin and muscle, liver, kidney, heart, lung, brain, intestine, fat, ovaries, urinary bladder, sciatic nerve, and skin, muscle, synovial membrane, and synovial fluid from all 4 joints (2 treated, left carpus and hock, and 2 untreated, right carpus and hock) was collected.
Doses were calculated by measuring the joint circumference and joint width (to include ˜2 cm above and below the joint) to calculate the total surface area for each individual dose. Group 1 received a 2% pharmaceutical composition of the invention and the dose volume for Group 1 was calculated using the total surface area and the designated dose volume of 3 μL/cm^2. The total dose volume was then converted from μL to mL to estimate the dose weight in grams, based on the composition density of 1 g/cm^3. Following is an example (not actual measurements) of calculating the dose:
For Groups 2-5, the dose volume was calculated using the total surface area and the designated dose volume of 3 μL/cm^2 (Groups 2, 3 and 5) or 1 μL/cm^2 (Group 4). The total dose volume was then converted from μL to mL to estimate the dose length in centimeters of a ribbon of the pharmaceutical composition when squeezed from a glaminate tube onto a metal metric ruler, based on the composition length-weight relationship of 1 cm of pharmaceutical composition being equal to 0.5 g of the composition (diameter of the tube opening was 0.87 cm).
The test compositions were topically applied an equal distance above and below the center of the joint, i.e., inter-carpal joint space (carpus) and inter-tarsal joint space (hock) of each animal to allow for complete coverage of the joint, including approximately 2 cm above and below the edges of the joint. The test composition was applied to the entire circumference of the designated area. All animals were dosed using the same distance above and below each joint center for consistency.
(§2) The dose volume (μL/cm^2) for the test pharmaceutical compositions was 3.0 μL/cm^2 for Groups 1, 2, 3 and 5 and 1.0 μL/cm^2 for Group 4.
(§3) The following tissue samples were collected after euthanasia: • Dorsal skin and muscle (from the mid-back) • Liver—Left Medial Lobe • Kidney—Right • Heart • Lung—Right diaphragmatic lobe • Brain—Right cerebral hemisphere • Intestine—mid-jejunum • Duodenum (10-15 cm length) from all 6 animals in Groups 1 and 2 • Fat • Ovary—Right • Urinary bladder • Sciatic nerve from both legs • Skin, muscle underlying site of administration and synovial membrane of all 4 joints (treated left carpus and hock and untreated right carpus and hock)

[5] = domestic pig joint penetration study: concentration in liver tissue; assay type: in vivo
Experimental: as §1, §2, §3

O=C1N(Cc2ccc(C(F)(F)F)o2)c2ccccc2[C@]12COc1cc3c(cc12)OCO3 [spiro-oxindole compound, (S)-1′-{[5-(trifluoromethyl)furan-2-yl]methyl}spiro[furo[2,3-f][1,3]benzodioxole-7,3′-indol]-2′(1′H)one]
potency of the block, inactivated state compared with resting state ([1]; NaV1.7): approximately 220 fold | IC50 ([1]; inactivated state): 0.05 µM | IC50 ([1]; resting state): 11.3 µM | Cmax ([2]; male, Göttingen, minipig, plasma, topical or ocular, 70 mg spiro-oxindole compound equivalents ointment/kg, 21 days repeated dermal dosing, read-out: mean maximum observed concentration [Cmax]): 11.7 ng/mL | time post dose at which mean plasma concentrations were maximal ([2]; after last dose (Day 21)): 8 h | apparent steady state achieved ([2]; repeated dermal dosing): between Days 14 and 21 | systemic exposure overall (in words) ([2]; repeated dermal dosing): low systemic exposure | radioactive peaks observed by UPLC ([3]; bile (gall bladder contents)): another two peaks | radioactive peaks observed by UPLC ([3]; urine): two distinct peaks | concentration in synovial membrane tissue, individual animals ([4]; G1 (#1-#3): 2% composition, 3.0 μL/cm^2 bid 17 days, Treated left carpus): 126.88 ng/g and 56.86 ng/g and 105.89 ng/g | concentration in synovial membrane tissue, individual animals ([4]; G1 (#1-#3): 2% composition, 3.0 μL/cm^2 bid 17 days, Treated left hock): 152.13 ng/g and 38.86 ng/g and 54.04 ng/g | concentration in synovial membrane tissue, individual animals ([4]; G1 (#1-#3): 2% composition, 3.0 μL/cm^2 bid 17 days, Untreated right carpus): 70.83 ng/g and 84.97 ng/g and 44.47 ng/g | concentration in synovial membrane tissue, individual animals ([4]; G1 (#1-#3): 2% composition, 3.0 μL/cm^2 bid 17 days, Untreated right hock): 97.22 ng/g and 33.16 ng/g and 41.19 ng/g | concentration in synovial membrane tissue, individual animals ([4]; G2 (#4-#6): 4% composition, 3.0 μL/cm^2 bid 17 days, Treated left carpus): 72.14 ng/g and 269.82 ng/g and 183.72 ng/g | concentration in synovial membrane tissue, individual animals ([4]; G2 (#4-#6): 4% composition, 3.0 μL/cm^2 bid 17 days, Treated left hock): 132.05 ng/g and 95.93 ng/g and 131.87 ng/g | concentration in synovial membrane tissue, individual animals ([4]; G2 (#4-#6): 4% composition, 3.0 μL/cm^2 bid 17 days, Untreated right carpus): 114.15 ng/g and 100.42 ng/g and 129.30 ng/g | concentration in synovial membrane tissue, individual animals ([4]; G2 (#4-#6): 4% composition, 3.0 μL/cm^2 bid 17 days, Untreated right hock): 92.75 ng/g and 69.80 ng/g and 98.28 ng/g | concentration in synovial membrane tissue, individual animals ([4]; G3 (#7-#9): 8% composition, 3.0 μL/cm^2 bid 17 days, Treated left carpus): 708.62 ng/g and 737.86 ng/g and 137.46 ng/g | concentration in synovial membrane tissue, individual animals ([4]; G3 (#7-#9): 8% composition, 3.0 μL/cm^2 bid 17 days, Treated left hock): 252.46 ng/g and 576.83 ng/g and 1917.93 ng/g | concentration in synovial membrane tissue, individual animals ([4]; G3 (#7-#9): 8% composition, 3.0 μL/cm^2 bid 17 days, Untreated right carpus): 54.19 ng/g and 185.83 ng/g and 130.63 ng/g | concentration in synovial membrane tissue, individual animals ([4]; G3 (#7-#9): 8% composition, 3.0 μL/cm^2 bid 17 days, Untreated right hock): 82.74 ng/g and 737.82 ng/g and 167.55 ng/g | concentration in synovial membrane tissue, individual animals ([4]; G4 (#10-#12): 8% composition, 1.0 μL/cm^2 bid 17 days, Treated left carpus): 49.99 ng/g and 59.22 ng/g and 159.68 ng/g | concentration in synovial membrane tissue, individual animals ([4]; G4 (#10-#12): 8% composition, 1.0 μL/cm^2 bid 17 days, Treated left hock): 291.56 ng/g and 38.32 ng/g and 3171.10 ng/g | concentration in synovial membrane tissue, individual animals ([4]; G4 (#10-#12): 8% composition, 1.0 μL/cm^2 bid 17 days, Untreated right carpus): 34.85 ng/g and 1772.86 ng/g and 46.92 ng/g | concentration in synovial membrane tissue, individual animals ([4]; G4 (#10-#12): 8% composition, 1.0 μL/cm^2 bid 17 days, Untreated right hock): 26.20 ng/g and 0.00 ng/g and 45.29 ng/g | concentration in synovial membrane tissue, individual animals ([4]; G5 (#13-#15): 8% composition, 3.0 μL/cm^2 qd 17 days, Treated left carpus): 702.22 ng/g and 150.00 ng/g and 35.31 ng/g | concentration in synovial membrane tissue, individual animals ([4]; G5 (#13-#15): 8% composition, 3.0 μL/cm^2 qd 17 days, Treated left hock): 31.44 ng/g and 100.00 ng/g and 55.90 ng/g | concentration in synovial membrane tissue, individual animals ([4]; G5 (#13-#15): 8% composition, 3.0 μL/cm^2 qd 17 days, Untreated right carpus): 11.61 ng/g and 25.25 ng/g and 79.58 ng/g | concentration in synovial membrane tissue, individual animals ([4]; G5 (#13-#15): 8% composition, 3.0 μL/cm^2 qd 17 days, Untreated right hock): 18.69 ng/g and 37.98 ng/g and 21.70 ng/g | concentration in synovial membrane tissue of treated joint (in words) ([4]; domestic pig, topical administration to a joint): micromolar concentrations | concentration in liver tissue, individual animals ([5]; G1 (#1-#3): 2% composition, 3.0 μL/cm^2 bid 17 days): 17.0 ng/g and 2.2 ng/g and 14.0 ng/g | concentration in liver tissue, individual animals ([5]; G2 (#4-#6): 4% composition, 3.0 μL/cm^2 bid 17 days): 49.1 ng/g and 29.3 ng/g | concentration in liver tissue, individual animals ([5]; G3 (#7-#9): 8% composition, 3.0 μL/cm^2 bid 17 days): 47.2 ng/g and 48.2 ng/g and 21.6 ng/g | concentration in liver tissue, individual animals ([5]; G4 (#10-#12): 8% composition, 1.0 μL/cm^2 bid 17 days): 0.0 ng/g and 39.1 ng/g and 13.0 ng/g | concentration in liver tissue, individual animals ([5]; G5 (#13-#15): 8% composition, 3.0 μL/cm^2 qd 17 days): 3.6 ng/g and 25.1 ng/g and 0.0 ng/g
